Measured values published in the NIST ThermoML archive (doi:10.1021/acs.jced.6b00526).
± gives the expanded uncertainty stated by the source.

Experiment: refractive index (Na D-line) (dimensionless); xn = mol fraction of the nth substance listed
Conditions: 100 kPa, Liquid, Standard Abbe refractometry

OCCO [1,2-ethanediol] + O
refractive index
Conditions	x2 = 0	x2 = 0.1593	x2 = 0.2669	x2 = 0.3496	x2 = 0.4449	x2 = 0.5563	x2 = 0.6518	x2 = 0.7482	x2 = 0.8444
288.15 K	1.432 ± 0.029	1.4278 ± 0.029	1.4239 ± 0.029	1.4202 ± 0.028	1.4152 ± 0.028	1.408 ± 0.028	1.3996 ± 0.028	1.3881 ± 0.028	1.3724 ± 0.027
293.15 K	1.4306 ± 0.029	1.4263 ± 0.029	1.4225 ± 0.029	1.4188 ± 0.028	1.4138 ± 0.028	1.4067 ± 0.028	1.3984 ± 0.028	1.387 ± 0.028	1.3714 ± 0.027
298.15 K	1.4294 ± 0.029	1.4251 ± 0.029	1.4212 ± 0.028	1.4176 ± 0.028	1.4126 ± 0.028	1.4055 ± 0.028	1.3973 ± 0.028	1.386 ± 0.028	1.3705 ± 0.027
303.15 K	1.4282 ± 0.029	1.4239 ± 0.029	1.42 ± 0.028	1.4163 ± 0.028	1.4114 ± 0.028	1.4043 ± 0.028	1.3961 ± 0.028	1.3849 ± 0.028	1.3696 ± 0.027
308.15 K	1.4269 ± 0.029	1.4225 ± 0.029	1.4187 ± 0.028	1.415 ± 0.028	1.4102 ± 0.028	1.4031 ± 0.028	1.3949 ± 0.028	1.3838 ± 0.028	1.3687 ± 0.027
313.15 K	1.4257 ± 0.029	1.4213 ± 0.028	1.4174 ± 0.028	1.4138 ± 0.028	1.409 ± 0.028	1.4019 ± 0.028	1.3938 ± 0.028	1.3827 ± 0.028	1.3677 ± 0.027
318.15 K	1.4244 ± 0.029	1.42 ± 0.028	1.4161 ± 0.028	1.4125 ± 0.028	1.4077 ± 0.028	1.4006 ± 0.028	1.3926 ± 0.028	1.3816 ± 0.028	1.3668 ± 0.027

OCCCCO [1,4-butanediol] + O
refractive index
Conditions	x2 = 0	x2 = 0.152	x2 = 0.2513	x2 = 0.3534	x2 = 0.4482	x2 = 0.5515	x2 = 0.6527	x2 = 0.7501	x2 = 0.8492	x2 = 0.9488
288.15 K	1.447 ± 0.029	1.4441 ± 0.029	1.4413 ± 0.029	1.4376 ± 0.029	1.4332 ± 0.029	1.4277 ± 0.029	1.4203 ± 0.028	1.4097 ± 0.028	1.3913 ± 0.028	1.3596 ± 0.027
293.15 K	1.4455 ± 0.029	1.4425 ± 0.029	1.4397 ± 0.029	1.436 ± 0.029	1.4317 ± 0.029	1.4262 ± 0.029	1.4188 ± 0.028	1.4082 ± 0.028	1.39 ± 0.028	1.3586 ± 0.027
298.15 K	1.4441 ± 0.029	1.4411 ± 0.029	1.4383 ± 0.029	1.4346 ± 0.029	1.4304 ± 0.029	1.4247 ± 0.029	1.4174 ± 0.028	1.4069 ± 0.028	1.3888 ± 0.028	1.3577 ± 0.027
303.15 K	1.4426 ± 0.029	1.4395 ± 0.029	1.4368 ± 0.029	1.4331 ± 0.029	1.4289 ± 0.029	1.4232 ± 0.029	1.416 ± 0.028	1.4056 ± 0.028	1.3876 ± 0.028	1.3569 ± 0.027
308.15 K	1.4412 ± 0.029	1.4381 ± 0.029	1.4353 ± 0.029	1.4316 ± 0.029	1.4274 ± 0.029	1.4219 ± 0.028	1.4147 ± 0.028	1.4044 ± 0.028	1.3865 ± 0.028	1.356 ± 0.027
313.15 K	1.4398 ± 0.029	1.4367 ± 0.029	1.4339 ± 0.029	1.4302 ± 0.029	1.426 ± 0.029	1.4205 ± 0.028	1.4134 ± 0.028	1.4031 ± 0.028	1.3853 ± 0.028	1.3552 ± 0.027
318.15 K	1.4384 ± 0.029	1.4352 ± 0.029	1.4324 ± 0.029	1.4288 ± 0.029	1.4246 ± 0.029	1.4191 ± 0.028	1.412 ± 0.028	1.4018 ± 0.028	1.3842 ± 0.028	1.3543 ± 0.027
